According to patent US20020187514A1 (priority 1999, published 2002):

Experiments:
Dopamine, D3 = target: T1, Dopamine, D3 (Rattus norvegicus, UniProt P19020); assay: Dopamine, D3 (Rat Recombinant); [3H]7-OH-DPAT; format: binding; details: read-out: Pass 1 (10^−5 M) % Inhibition
T1 construct: expressed in transfected cells

Neurokinin, NK3 (NKB) = format: binding; details: 10^−5 M

T1 sequence (P19020 whole entry): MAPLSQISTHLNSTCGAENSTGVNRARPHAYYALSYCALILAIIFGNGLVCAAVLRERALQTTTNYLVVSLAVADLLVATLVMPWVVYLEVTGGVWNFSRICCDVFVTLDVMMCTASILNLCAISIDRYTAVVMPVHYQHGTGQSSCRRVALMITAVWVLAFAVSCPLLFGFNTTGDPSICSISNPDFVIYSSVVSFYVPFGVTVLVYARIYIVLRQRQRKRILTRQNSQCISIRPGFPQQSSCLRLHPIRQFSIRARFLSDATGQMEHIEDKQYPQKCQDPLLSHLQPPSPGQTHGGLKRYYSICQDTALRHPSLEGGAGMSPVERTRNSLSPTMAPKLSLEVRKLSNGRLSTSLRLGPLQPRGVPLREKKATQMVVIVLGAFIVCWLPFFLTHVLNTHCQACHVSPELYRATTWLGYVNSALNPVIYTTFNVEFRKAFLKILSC

In the case of `COC(=O)[C@H]1[C@@H](OC(=O)c2ccccc2)C[C@@H]2CC[C@H]1N2C` [cocaine], the inhibition at 10 µM (Dopamine, D3) is reported as 30.2% and the “Pass 1 (10^−5 M) % Inhibition” value (Neurokinin, NK3 (NKB)) is reported as −15.24%.
